For the experiment, the system named is HVA calcium channel currents in DRG neuronal cells. It is filed as cell-based, rat.

In the case of `COC(=O)C1=C(C)NC(C)=C(C(=O)OC)C1c1ccccc1[N+](=O)[O-]` [Nifedipine], the current after loading is given as −734.31 pA and the current before loading is on record as −1471.35 pA. For the same compound, the inhibition rate (10 µM) stood at 50.09%.

Source of the values: patent US10556927B2 (priority 2014, dated 2020).
